{"source": "paper PMC6747274", "about": "“Multifunctional Peptides from Spanish Dry-Cured Pork Ham: Endothelial Responses and Molecular Modeling Studies” (International Journal of Molecular Sciences, 2019)", "tested_on": "eNOS mRNA, EA.hy926 cells", "assay": "eNOS mRNA expression by RT-PCR in EA.hy926 cells", "format": "cell-based, human", "details": "300 µM peptide 16 h, then 100 ng/mL TNF-α 6 h; p = 0.0003 (BP1), 0.04 (BP2)", "protocol": "EA.hy926 cells, the hybrid human umbilical vein endothelial cell line, were obtained from the American Type Culture Collection (ATCC® CRL2922™, Rockville, MD, USA). Cells were cultured in high glucose Dulbecco’s Modified Eagle’s Medium (DMEM), containing 10% heat-inactivated fetal bovine serum (FBS, Biowest, Riverside, CA, USA) and 50 U/mL of penicillin and 50 µg/mL streptomycin (Sigma Aldrich Chemical Co., Saint Louis, MO, USA). Cells were grown in 5% CO2 in a humidified air incubator at 37 °C. Subculture was performed when 90% confluence was reached.\nEA.hy926 were seeded in six-well plates at 0.25 × 10^6 cells/well in DMEM supplemented with 5% FBS. Cells were treated with 300 µM of each peptide for 16 h. Then, 100 ng/mL TNF-α or 300 µM H2O2 were added for an additional 6 h or 24 h, respectively.\nTotal RNA was extracted from EA.hy926 cells using 300 µL Trisure™ (Bioline, Taunton, MA, USA) reagent and Direct-zol™ RNA MiniPrep (Zymo Research Irvine, Irvine, CA, USA) according to the manufacturer’s protocol. Total RNA was reverse-transcribed into complementary DNA (Sensifast cDNATM Synthesis kit, Bioline, Taunton, MA, USA). The mRNA levels of the target genes were quantified by RT-PCR using SensiFAST SYBER Hi-ROX Kit (Bioline, Taunton, MA, USA) with StepOnePlus Real-Time PCR System (Applied Biosystems, Foster City, CA, USA). Briefly, 5 µL of 1:5 diluted cDNA was added to the qPCR reaction containing 10 μL 2X SensiFAST Mix and 400 nM of each primer in a total volume of 20 μL.\nSpecific and validated primers for human glyceraldehyde-3-phosphate dehydrogenase (GADPH), intercellular adhesion marker-1 (ICAM-1), vascular cell adhesion marker-1 (VCAM-1), endothelial nitric oxide synthase (eNOS), interleukin 6 (IL-6), catalase, SOD (Super Oxide Dismutase), NADPH (Nicotinamide Adenine Dinucleotide Phosphate oxidase) and Bax (proapoptosis regulator) genes were used (Sigma-Aldrich Chemical Co., Saint Louis, MO, USA). […]\nThe relative quantification of gene expression was determined by the comparative fold change […] method. […]", "note": "Where no end group is shown, it is not given here."}
{"substance": "KAAAATP [BP2]", "values": [{"measurement": "eNOS mRNA expression vs TNF-α stimulated cells", "value": "recovered"}]}
